{"source": "paper PMC8434491", "about": "“Targeting the Integrated Stress Response Kinase GCN2 to Modulate Retroviral Integration” (Molecules, 2021)", "key": {"GCN2": {"target": "T1, GCN2 (Homo sapiens, UniProt Q9P2K8)", "T1 construct": "expressed as a truncated version (192-1024) in fusion after a glutathione S-transferase tag; purchased SignalChem E12-11G", "T1 sequence (Q9P2K8 192-1024)": "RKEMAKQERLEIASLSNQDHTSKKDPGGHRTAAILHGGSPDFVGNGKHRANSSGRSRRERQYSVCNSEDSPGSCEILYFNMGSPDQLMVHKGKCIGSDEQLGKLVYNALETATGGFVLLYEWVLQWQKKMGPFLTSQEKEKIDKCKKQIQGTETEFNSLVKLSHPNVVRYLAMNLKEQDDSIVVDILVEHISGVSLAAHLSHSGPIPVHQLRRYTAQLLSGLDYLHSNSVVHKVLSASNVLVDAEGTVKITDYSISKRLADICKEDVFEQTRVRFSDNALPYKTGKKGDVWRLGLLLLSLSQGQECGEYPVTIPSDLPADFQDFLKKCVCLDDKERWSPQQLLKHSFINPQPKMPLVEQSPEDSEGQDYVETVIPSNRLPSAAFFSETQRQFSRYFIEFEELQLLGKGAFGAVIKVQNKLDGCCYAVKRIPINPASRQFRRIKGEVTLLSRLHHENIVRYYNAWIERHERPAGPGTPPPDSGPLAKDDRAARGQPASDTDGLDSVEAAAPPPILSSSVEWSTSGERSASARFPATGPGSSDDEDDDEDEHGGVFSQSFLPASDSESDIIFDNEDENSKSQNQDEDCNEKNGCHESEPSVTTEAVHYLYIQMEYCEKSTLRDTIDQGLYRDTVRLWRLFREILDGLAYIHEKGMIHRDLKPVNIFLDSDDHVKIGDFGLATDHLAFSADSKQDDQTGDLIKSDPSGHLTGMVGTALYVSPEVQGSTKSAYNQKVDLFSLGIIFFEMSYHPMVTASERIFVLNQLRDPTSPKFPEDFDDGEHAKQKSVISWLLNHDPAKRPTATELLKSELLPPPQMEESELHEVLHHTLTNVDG", "experiment": "In vitro phosphorylation assay: GCN2 activation (auto-phosphorylation)", "format": "biochemical", "settings": "with IN", "source_text": "Enzymes. GCN2 was purchased from SignalChem (EIF2AK4, cat. #E12-11G). This human recombinant protein was expressed as a truncated version (192-1024) in fusion after a glutathione S-transferase tag (approximate molecular weight of 132 kDa). Recombinant full-length IN was expressed in E. coli BL21 pLys (IPTG induction) and purified on a nickel chelating column, as described. Integrity and purity were checked by direct Coomassie coloration of elution fractions on SDS-PAGE before dialysis to remove imidazole. Protein concentration was determined using a NanoDrop 2000 with the following parameters: molecular weight: 34 kDa, extinction coefficient ϵ = 50,460 mol^−1cm^−1L.\nIn vitro phosphorylation assay. Phosphorylation of IN (700 nM) was carried out using 25 nM of GCN2 in a reaction buffer containing 10 mM Tris-HCl pH 7.5, 50 mM NaCl, 15 mM MgCl2, 7.5 mM MnCl2, 10 mM DTT, 0.005% Nonidet P-40, 100 µM ATP, 50 µCi/µL of [γ-^32P]-ATP (3000 Ci/mmole, Perkin Elmer). Reactions (20 µL) were stopped after a 60 min incubation at 30 °C by adding 10 µL of loading buffer [80 mM Tris-HCl pH 6.8, 100 mM DTT, 10% glycerol, 1% sodium dodecyl sulfate (SDS) and 0.05% bromophenol blue]. Samples were then loaded onto a 10% denaturating SDS-PAGE. After protein separation (120 V for 120 min) the gel was stained using Coomassie Brilliant Blue R-250. Autoradiography was performed using an imaging plate (Fujifilm, Tokyo, Japan) and images were obtained with a FLA-5000 Imaging System (Fujifilm)."}, "IN–GCN2 interaction": {"target": "T2, IN–GCN2 interaction (UniProt P04585+Q9P2K8)", "T2 construct": "expressed as a truncated version (192-1024) in fusion after a glutathione S-transferase tag; Recombinant full-length IN was expressed in E. coli BL21 pLys; purchased SignalChem (GCN2); IN made in house in E. coli BL21 pLys E12-11G; host or cells: E. coli BL21 pLys (IN)", "experiment": "IN–GCN2 interaction assay (AlphaLISA)", "format": "binding, HIV-1 IN / human GCN2", "settings": "pilot screen, single dose of 100 µM; read-out: inhibition of the IN–GCN2 interaction signal", "source_text": "We developed an in vitro plate-based assay to monitor the interaction between GCN2 and IN using the AlphaLISA technology (Figure 1). Taking advantage of the tags present on each recombinant protein (6xHis for IN prepared “in-house”, and GST for GCN2 commercially available), we used specific beads that fluoresce only when they are in close proximity (<200 nm). The signal obtained (light count) is directly proportional to the binding of IN to GCN2 (homogenous solution assay at steady state).\nIN–GCN2 interaction assay. Protein–protein interactions were monitored using the AlphaLISA technology (Perkin Elmer) taking advantage of the GST and 6xHis tags of GCN2 and IN, respectively. Accordingly, AlphaScreen GSH Donor beads and AlphaLISA Nickel Acceptor beads were used (Perkin Elmer). Reactions were carried out at room temperature by incubating GCN2 with drugs or DMSO for 5 min before addition of AlphaLISA Nickel Acceptor beads. After 5 min, IN was added to the reaction mixture and incubated for 20 min before adding the AlphaScreen GSH Donor beads. This interaction assay was performed in conditions similar to the in vitro phosphorylation assay, already described, using 25 nM GCN2 and 700 nM (except indicated otherwise) in a reaction buffer containing 50 mM Tris-HCl pH 7.5, 40 mM NaCl, 1 mM dithiothreitol (DTT), 0.05% Tween 20, 0.1% bovine serum albumin (BSA), 10 µg/mL of each donor and acceptor beads. Alpha signal was measured using an EnSight plate reader (Perkin Elmer) 120 min after the addition of the latest component of the reaction (unless indicated otherwise)."}}, "data": [{"compound": "O=C1c2c(O)ccc(O)c2C(=O)c2c(NCCNCCO)ccc(NCCNCCO)c21", "note": "[NSC279836, Mitoxantrone]", "values": [{"measurement": "remaining activity at 100 µM", "setting": "GCN2; 100 µM, read-out: GCN2 auto-phosphorylation signal, % of the DMSO control", "result": 171, "unit": "%"}, {"measurement": "effect on GCN2 auto-phosphorylation in dose-response", "setting": "GCN2; serial dilutions from 300 µM to 137 nM", "result": "reproducible increase"}, {"measurement": "inhibition at 100 µM", "setting": "IN–GCN2 interaction", "result": 99.4, "unit": "%"}]}]}
